{"source": "BindingDB's records for doi:10.1128/AAC.01293-09", "about": "(Glaxosmithkline, 2010)", "key": {"[1]": {"test": "Inhibition of HIV1 HXB2 gp120-mediated viral infusion into HEK293 cells after 24 hrs by luciferase reporter gene assay in presence of 45 mg/ml human serum albumin"}, "[2]": {"test": "Inhibition of HIV1 HXB2 gp120-mediated viral infusion into HEK293 cells after 24 hrs by luciferase reporter gene assay"}, "[3]": {"test": "Inhibition of CXCR4-mediated chemotaxis in SDF1-stimulated human U937 cells treated 15 mins before SDF1 challenge measured after 2 hrs by luminescence assay"}}}
{"smiles": "CN1CCN(c2cccc3nc(CN(C)[C@H]4CCCc5cccnc54)c(CO)n23)CC1", "note": "[([5-(4-Methyl-1-piperazinyl)-2-({methyl[(8S)-5,6,7,8-tetrahydro-8-quinolinyl]amino}methyl)imidazo[1,2-a]pyridin-3-yl]methanol)]", "values": [{"measurement": "IC50", "setting": "[1]", "value": 1710, "unit": "pM"}, {"measurement": "IC50", "setting": "[2]", "value": 560, "unit": "pM"}, {"measurement": "IC50", "setting": "[3]", "value": 340, "unit": "pM"}]}
